Data reported in PubChem BioAssay AID743259 (The Scripps Research Institute Molecular Screening Center, 2014).
The source made the active and inactive calls. The rule behind the calls is not given here.

Each compound was assayed against Disintegrin and metalloproteinase domain-containing protein 10 (Homo sapiens) (UniProt O14672) (assay: ADAM10 protease inhibitors, dose response, selectivity assay for ADAM17 exosite inhibitor project, biochemical, FRET peptide substrate, recombinant human ADAM10 (AID 743259)). Settings: Recombinant ADAM10, FRET peptide substrate cleavage.
Disintegrin and metalloproteinase domain-containing protein 10 (Homo sapiens), sequence (O14672 214-748 limits assumed): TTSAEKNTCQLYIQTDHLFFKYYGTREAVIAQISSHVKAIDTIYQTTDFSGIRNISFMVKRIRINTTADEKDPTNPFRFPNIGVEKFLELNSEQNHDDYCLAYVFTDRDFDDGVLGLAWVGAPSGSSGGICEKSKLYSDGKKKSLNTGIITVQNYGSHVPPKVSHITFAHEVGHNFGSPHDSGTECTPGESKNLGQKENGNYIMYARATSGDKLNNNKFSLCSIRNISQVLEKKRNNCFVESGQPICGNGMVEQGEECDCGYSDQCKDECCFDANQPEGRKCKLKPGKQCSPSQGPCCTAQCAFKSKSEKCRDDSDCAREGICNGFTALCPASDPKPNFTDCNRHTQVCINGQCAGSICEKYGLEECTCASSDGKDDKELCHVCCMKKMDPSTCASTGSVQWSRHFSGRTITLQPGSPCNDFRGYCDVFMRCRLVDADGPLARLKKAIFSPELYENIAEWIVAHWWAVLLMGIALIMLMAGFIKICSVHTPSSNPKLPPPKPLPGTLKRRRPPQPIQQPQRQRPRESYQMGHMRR

IC50	Structure (SMILES)
inactive	CCCOC(=O)c1ccc(Oc2cn[nH]c2-c2ccc(OCC)cc2O)cc1
9.96 µM	C/C(=N\N=C(/N)SC1CC(=O)N(c2ccccc2)C1=O)c1cccs1 (centres undefined)
> 69.5 µM (inactive)	Cc1cc(SCC(=O)c2ccc(O)c(O)c2)n2nc(C)c(-c3ccccc3)c2n1
> 69.5 µM (inactive)	COCCN=c1scc(-c2cc(OC)ccc2OC)n1/N=C/c1c[nH]c2ccccc12
inactive	CC(C)(C)c1ccc(OCc2nc(-c3ccccn3)no2)c(Br)c1
> 69.5 µM (inactive)	COc1cccc(C2C(C#N)=C(N)Oc3c2oc(CO)cc3=O)c1 (centres undefined)
inactive	O=C(CC1SC(=O)N(c2ccccc2)C1=O)Nc1ccccc1 (centres undefined)
> 69.5 µM (inactive)	COc1ccc(N(CC(O)Cn2c3ccccc3c3ccccc32)S(=O)(=O)c2ccccc2)cc1 (centres undefined)
> 69.5 µM (inactive)	CC(=O)c1cccc(NC(=O)C(OC(=O)c2ccccc2NS(=O)(=O)c2cccs2)c2ccccc2)c1 (centres undefined)
> 69.5 µM (inactive)	C=C(C)CN1CCN(S(=O)(=O)c2ccc(C)c(N(C)S(=O)(=O)c3ccc(C)cc3)c2C)CC1
9.05 µM	Oc1c(C(c2ccccn2)N2CCCCC2)cc(Cl)c2cccnc12 (centres undefined)
> 69.5 µM (inactive)	COC(=O)c1cccc(Cn2c(Cl)c(/C=N/Nc3ccccc3C)sc2=O)c1
> 69.5 µM (inactive)	Cc1ccccc1NC(C)C(=O)N/N=C/c1ccccc1OCc1cccc(Br)c1 (centres undefined)
inactive	CCOc1ccc(NC(=O)CC2SC(=O)N(c3ccccc3)C2=O)cc1 (centres undefined)
> 69.5 µM (inactive)	O=C1OCCN1C(=O)[C@H]1[C@H](c2ccc([N+](=O)[O-])cc2)C(c2ccccc2)=NN1c1ccc(Br)cc1
> 69.5 µM (inactive)	COCCN=c1scc(-c2cc(OC)c(OC)c(OC)c2)n1/N=C/c1c(C)[nH]c2ccccc12
> 69.5 µM (inactive)	O=C(NCC1CCCO1)C(c1cccs1)N(Cc1ccccc1)C(=O)c1ccc(-c2ccccc2)[nH]1 (centres undefined)
inactive	C/C(=N\N=C(/N)SC1CC(=O)N(c2ccc(Br)cc2)C1=O)c1cccs1 (centres undefined)
> 69.5 µM (inactive)	CC(=NNC(=O)CSc1nnc(-c2ccc(C(C)(C)C)cc2)n1-c1ccccc1)c1cccc2ccccc12
